Test results as given in EP0181592B1, “Use of spergualin derivatives for the preparation of medicaments having immunosuppressive activity” (MICROBIAL CHEMISTRY RESEARCH FOUNDATION, priority 1984, dated 1986).

Tests used:
[1] = Toxicity to mice (LD50, single intraperitoneal administration); details: mouse, in vivo, ip, read-out: LD₅₀
Source text: The compounds of the formula I are characterized by relatively low toxicity and small accumulation of toxicity upon continuous administration.

[2] = system: Mice Sensitized by Sheep Red Blood Cells; assay: Inhibition of delayed-type hypersensitivity in mice sensitized by sheep red blood cells (footpad swelling); assay type: in vivo, CDFl mice; details: relative to saline control = 100%, measured at the 24th hour
Experimental: CDFl mice (8-wk-old, female) were sensitized by intravenous injection of 1 x 10⁵ sheep red blood cells. Four days later, the sensitized mice were subcutaneously injected in one footpad with 1 x 10⁸ sheep red blood cells so as to induce delayed-type hypersensitivity. The swelling of the footpad was measured at the 24th hour with a micrometer. Each of the test compounds was administered intraperitoneally in the amounts (mg/kg) indicated in Table 3 for a period of 3 days that started on the day following the initial sensitization. The degree of footpad swelling was indicated in relative values, with the value for a control given physiological saline instead of the test compounds being taken as 100%.

[3] = system: Spleen cells from BALB/C mice; assay: Inhibition of ConA-induced T-lymphocyte blast genesis (3H-thymidine uptake); assay type: cell-based; details: for inhibition of the reaction of T-lymphocyte blast genesis (in words): ConA-stimulated; for inhibition at 10 µg/mL / inhibition at 100 µg/mL: Mus musculus, T-lymphocyte, ConA 5 µg/ml, 72 hours; for inhibition at 10 µg/mL: 10 µg/ml compound; for inhibition at 100 µg/mL: 100 µg/ml compound
Experimental: (§1) Spleen cells from BALB/C mice were distributed among wells in a microplate so that each well contained 2 x 10⁵ cells/0.2 ml. Each of the selected test compounds was added to all wells but one, the latter being used as a control. ConA (5 µg/ml) was added to all the wells and the so prepared cell suspensions were cultivated in a 5% CO₂ incubator for 72 hours at 37°C. Eight hours before the completion of the incubation, 1 µCi of ³H-thymidine was added to each well and the uptake of the thymidine by the cultured cells was measured with a liquid scintillation counter to estimate the progress of reaction of T-lymphocyte blast genesis. The percentage inhibition of the genesis by each of the test compounds was calculated by: (1 - Bdpm/Adpm) x 100 wherein Adpm indicates the uptake count for the addition of ConA alone and Bdpm, the count for the addition of both ConA and the test compound.

[4] = system: Spleen cells from BALB/C mice; assay: Inhibition of LPS-induced B-lymphocyte blast genesis (3H-thymidine uptake); assay type: cell-based; details: for suppression of LPS-induced genesis of B-lymphocyte blasts (in words): LPS-stimulated; for inhibition at 10 µg/mL / inhibition at 100 µg/mL: Mus musculus, 100 µg/ml of LPS from E. coli; for inhibition at 10 µg/mL: 10 µg/ml compound; for inhibition at 100 µg/mL: 100 µg/ml compound
Experimental: as §1
The uptake of ³H-thymidine by B-cell blasts was measured in accordance with the method used in Test Example 2, except that the inducer ConA was replaced by 100 µg/ml of LPS from E. coli. The percentage inhibition of blast genesis by selected test compounds was also determined by the same method as used in Text Example 2.

CDFl mice = assay: Inhibition of production of antibodies against sheep red blood cells (plaque-forming spleen cells); assay type: in vivo; details: 12.5 mg/kg per day intraperitoneally for 3 days; plaque-forming spleen cells counted
Source text: The compounds of the formula I exert inhibitory effects on the function of lymphocytes of immunological importance. […] Therefore in vivo experiments have been conducted to examine the effects of the compounds of the formula I on T-lymphocytes. First, in accordance with the method of Lagrange et al. (Lagrange et al., Journal of Experimental Medicine, 139, 528-542, 1974), the compounds of the formula I were examined for their effects on delayed-type hypersensivity in mice that had been sensitized with sheep red blood cells. The delayed-type hypersensivity could be blocked by administering the compound for three consecutive days following the sensitization with sheep red blood cells. Additionally, in accordance with the method of Jerne et al. (Jerne et al., Cell-bound Antibodies, pp. 109-122, 1963), the compounds of the formula I were checked for their effects on the plaque-forming ability of spleen cells from mice sensitized by antigenic sheep red blood cells.
CDFl mice (6-10 wk old, female) were immunized by intravenous injection of 1 x 10⁸ sheep red blood cells. The mice were intraperitoneally administered 12.5 mg/kg per day of selected test compounds for a period of 3 days starting from the day following the intravenous injection. Four days later, spleen cells were isolated from the mice and the number of plaque-forming cells was counted. The percentage inhibition of antibody production was calculated by (1 - B/A) x 100 wherein A is the count for a control group (given physiological saline) and B, for the treated group.

[5] = 0.20 mg/kg intraperitoneally for 3 days
[6] = 0.78 mg/kg intraperitoneally for 3 days
[7] = 3.13 mg/kg intraperitoneally for 3 days
[8] = 12.5 mg/kg intraperitoneally for 3 days
[9] = 6.25 mg/kg intraperitoneally for 3 days
[10] = 25 mg/kg intraperitoneally for 3 days

SMILES	LD50 [1] [mg/kg]	Footpad swelling (%) [2, 5] [%]	Footpad swelling (%) [2, 6] [%]	Footpad swelling (%) [2, 7] [%]	Footpad swelling (%) [2, 8] [%]	inhibition of the reaction of T-lymphocyte blast genesis (in words) [3]	inhibition at 10 µg/mL [3] [%]	inhibition at 100 µg/mL [3] [%]	suppression of LPS-induced genesis of B-lymphocyte blasts (in words) [4]	inhibition at 10 µg/mL [4] [%]	inhibition at 100 µg/mL [4] [%]	percentage inhibition of antibody production (CDFl mice)	Footpad swelling (%) ([2]; 0.39 mg/kg intraperitoneally for 3 days)	Footpad swelling (%) [2, 9] [%]	Footpad swelling (%) [2, 10] [%]
N=C(N)NCCCCCCC(=O)NC(O)C(=O)NCCCCNCCCN (centres unmarked) [(1), N-[4-(3-aminopropyl)aminobutyl]-2-(7-guanidinoheptaneamido)-2-hydroxyethaneamide]	25 to 50	72	87	29	15	strong ability to inhibit	93	100	highly effective in suppressing	98	100	98.5%	–	–	–
COC(NC(=O)CCCCCCNC(=N)N)C(=O)NCCCCNCCCN (centres unmarked) [(2), N-[4-(3-aminopropyl)aminobutyl]-2-(7-guanidinoheptaneamino)-2-methoxyethaneamide]	12.5 to 25	99	49	5.5	–	–	–	–	–	–	–	95.9%	–	–	–
N=C(N)NCCCCCCCCC(=O)NC(O)C(=O)NCCCCNCCCN (centres unmarked) [(3), N-[4-(3-aminopropyl)aminobutyl]-2-(9-guanidinononaneamido)-2-hydroxyethaneamide]	12.5 to 25	55	32	11	6.6	–	–	–	–	–	–	–	–	–	–
N=C(N)NCCCCCCC(=O)NCC(=O)NCCCCNCCCN [(4), N-[4-(3-aminopropyl)aminobutyl]-2-(7-guanidinoheptaneamido)-ethaneamide]	12.5 to 25	–	111	–	–	strong ability to inhibit	99	100	highly effective in suppressing	100	100	89,4%	99	46	–
N=C(N)NCCCCCCC(=O)N[C@@H](CO)C(=O)NCCCCNCCCN [(5), N-[4-(3-aminopropyl)aminobutyl]-2-(7-guanidinoheptaneamido)-(S)-2-hydroxymethylethaneamide]	12.5 to 25	81	117	58	–	strong ability to inhibit	96	100	highly effective in suppressing	88	100	89,4%	–	–	–
N=C(N)Nc1ccc(CCCC(=O)NCC(=O)NCCCCNCCCN)cc1 [(6), N-[4-(3-aminopropyl)aminobutyl]-2-[4-(p-guanidinophenyl)butaneamido]ethaneamide]	25 to 50	–	–	–	–	strong ability to inhibit	99	100	highly effective in suppressing	96	100	92,9%	–	102	33
N=C(N)Nc1ccc(CCCC(=O)N[C@@H](CO)C(=O)NCCCCNCCCN)cc1 [(7), N-[4-(3-aminopropyl)aminobutyl]-2-[4-(p-guanidinophenyl)-butaneamido]-(S)-2-hydroxymethylethaneamide]	25 to 50	–	–	–	–	–	–	–	–	–	–	–	–	54	42
N=C(N)NCc1ccc(CCC(=O)N[C@@H](CO)C(=O)NCCCCNCCCN)cc1 [(8), N-[4-(3-aminopropyl)aminobutyl]-2-[3-(p-guanidinomethylphenyl)propaneamido]-(S)-2-hydroxymethylethaneamide]	25 to 50	–	–	50	20	strong ability to inhibit	79	100	–	–	–	–	–	–	–
N=C(N)Nc1ccc(CCCCC(=O)N[C@@H](CO)C(=O)NCCCCNCCCN)cc1 [(9), N-[4-(3-aminopropyl)aminobutyl]-2-[5-(p-guanidinophenyl)-pentaneamido]-(S)-2-hydroxymethylethaneamide]	25 to 50	–	–	45	52	–	–	–	–	–	–	–	–	–	–
COC(NC(=O)C=CCCCCNC(=N)N)C(=O)NCCCCNCCCN (centres unmarked) [(10), N-[4-(3-aminopropyl)aminobutyl]-2-[7-guanidinohepta-2-enamido]-2-methoxyethaneamide]	25 to 50	–	–	37	6.0	–	–	–	–	–	–	–	–	–	–
N=C(N)NCCCCC=CC(=O)NC(O)C(=O)NCCCCNCCCN (centres unmarked) [(11), N-[4-(3-aminopropyl)aminobutyl]-2-[7-guanidinohepta-2-enamido]-2-hydroxyethaneamide]	25 to 50	–	–	40	8.5	strong ability to inhibit	88	100	highly effective in suppressing	98	100	–	–	–	–
N=C(N)NCCCC[C@H](O)CC(=O)NC(O)C(=O)NCCCCNCCCN (some centres unmarked) [Spergualin]	–	–	–	106	28	–	–	–	–	–	–	–	–	–	–
